Measured values published in the supplement of paper PMC6045584.

What was measured:
Assay in all cases: area under dose-response curve of surviving fraction (unscaled, Aref=0) (surviving fraction x log10(nM)); higher = more resistant
Details in all cases: exposure time: 5 days; dose range 0.5-1000 nM
SNX-5422 = compound: CC1(C)CC(=O)c2c(C(F)(F)F)nn(-c3ccc(C(N)=O)c(N[C@H]4CC[C@H](OC(=O)CN)CC4)c3)c2C1 [SNX-5422]
How it was run: (§1)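 Inhibitor was applied to tumour cell lines at eight concentrations (0.5 to 1000 nM) for five days in 384-well plates. Luminescence from CellTiter-Glo, scaled to DMSO-only wells, gave surviving fractions in three screens per line, and these were fitted by 3-parameter logistic regression with the drc R package. The area under the curve is an unscaled activity area. Aref was 0, and dose was on a log10 scale.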

AFATINIB = compound: CN(C)C/C=C/C(=O)Nc1cc2c(Nc3ccc(F)c(Cl)c3)ncnc2cc1O[C@H]1CCOC1 [AFATINIB]
How it was run: as §1

MDV3100 = compound: CNC(=O)c1ccc(N2C(=S)N(c3ccc(C#N)c(C(F)(F)F)c3)C(=O)C2(C)C)cc1F [MDV3100]
How it was run: as §1

TIOGUANINE = compound: Nc1nc2[nH]cnc2c(=S)[nH]1 [TIOGUANINE]
How it was run: as §1

Test System	area under dose-response curve (SNX-5422)	area under dose-response curve (AFATINIB)	area under dose-response curve (MDV3100)	area under dose-response curve (TIOGUANINE)
MG63 BONE	2.18	3.27	3.28	3.29
JIMT1 BREAST	2.23	2.62	3.33	3.25
HT1080 SOFT TISSUE	2.11	3.25	3.42	3.16
MDAMB231 BREAST	2.3	3.07	3.22	3.15
HU09 BONE	1.39	3.05		3.42
SIHA CERVIX	2.2	3.2	3.05	3.01
LM7 BONE	1.88	2.89	3.51	3.33
HCC1954 BREAST	1.62	1.86		3.09
VP229 BREAST	2.34	1.7		3.57
VCAP PROSTATE	2.12	3.11		3.49
OSHN BONE	2.25	3.58	3.44	
NCIH441 LUNG	2.63	3.02	3.25	3.28
SNU475 LIVER	2.29	2.99	2.8	3.14
SUM44 BREAST	2.47	3.18	3.43	3.39
HMT3552 BREAST			3.66	
NY BONE	1.89	3.1	3.06	3.27
NOS1 BONE	2.09	2.86		3.79
MDAMB361 BREAST	2.27	2.35	2.85	2.95

Test System	area under dose-response curve (SNX-5422)	area under dose-response curve (AFATINIB)	area under dose-response curve (MDV3100)	area under dose-response curve (TIOGUANINE)
HOS BONE	1.72	3.28	3.36	3.16
COLO320DM LARGE INTESTINE	2.19	3.24	3.31	3.52
MDAMB134 BREAST	2.8	3.16		3.2
DU4475 BREAST	1.76		3.04	2.55
OS25HAL BONE	2.27	3.28	3.23	3.21
SYO1 SYNOVIAL	1.47	2.96	2.45	2.43
SG27 HEADNECK	2.78	3.13		3.34
S68 BREAST	1.76	2.48	3.58	3.32
A549 LUNG	2.28	3.35	3.23	3.21
MDAMB157 BREAST	2.28	3.17	3.08	3.03
SG31 HEADNECK	2.1	2.04	3.39	
BT549 BREAST	1.94	3.09	3.26	3.29
T47D BREAST	2.33	3.42	3.29	3.35
SCC36 HEADNECK	2.06	1.53	3.27	3.72
22RV1 PROSTATE	1.82	3.06	3.12	3.28
93VU HEADNECK	2.18	1.9	3.11	3.19
CADOES1 SOFT TISSUE	1.95	2.94	2.95	3.12
